Test results from patent publication US10988477B2 (Merck Patent GmbH, priority 2018, dated 2021).

Tests used:
GCN2 kinase = GCN2 kinase (Homo sapiens, UniProt Q9P2K8); assay: GCN2 enzyme inhibition assay (Transcreener ADP2 fluorescence polarization); format: biochemical; settings: compounds of Formula II; 280 μM ATP, 4 nM GCN2 kinase
Method in brief: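 4 nM GCN2 + 200 μM (RS)7 + compound (0–8 μM), 10 min preinc.; start with ATP (280 μM final); 1 h, 25 °C; pH 7.5 Tris/NaCl/MgCl2/DTT; ADP FP readout; IC50, Ki(app) via tight-binding fit.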

[1] = biological target: intracellular GCN2 (phosphorylation of the GCN2 substrate eIF2α) (Homo sapiens, UniProt Q9P2K8); assay: GCN2 cellular inhibition assay (AlphaScreen SureFire P-eIF2α Ser51, borrelidin-treated U2OS cells); format: cell-based; settings: compounds of Formula II; biomarker assay, phosphorylated eIF2α Ser51 in borrelidin-treated U2OS cells
Method in brief: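 Compound effect on GCN2 is gauged by eIF2α Ser51 phosphorylation in borrelidin-challenged U2OS cells (10 μM, 1 h). Top compound level is 40 μM final.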

Chain of GCN2 kinase (Q9P2K8 whole entry): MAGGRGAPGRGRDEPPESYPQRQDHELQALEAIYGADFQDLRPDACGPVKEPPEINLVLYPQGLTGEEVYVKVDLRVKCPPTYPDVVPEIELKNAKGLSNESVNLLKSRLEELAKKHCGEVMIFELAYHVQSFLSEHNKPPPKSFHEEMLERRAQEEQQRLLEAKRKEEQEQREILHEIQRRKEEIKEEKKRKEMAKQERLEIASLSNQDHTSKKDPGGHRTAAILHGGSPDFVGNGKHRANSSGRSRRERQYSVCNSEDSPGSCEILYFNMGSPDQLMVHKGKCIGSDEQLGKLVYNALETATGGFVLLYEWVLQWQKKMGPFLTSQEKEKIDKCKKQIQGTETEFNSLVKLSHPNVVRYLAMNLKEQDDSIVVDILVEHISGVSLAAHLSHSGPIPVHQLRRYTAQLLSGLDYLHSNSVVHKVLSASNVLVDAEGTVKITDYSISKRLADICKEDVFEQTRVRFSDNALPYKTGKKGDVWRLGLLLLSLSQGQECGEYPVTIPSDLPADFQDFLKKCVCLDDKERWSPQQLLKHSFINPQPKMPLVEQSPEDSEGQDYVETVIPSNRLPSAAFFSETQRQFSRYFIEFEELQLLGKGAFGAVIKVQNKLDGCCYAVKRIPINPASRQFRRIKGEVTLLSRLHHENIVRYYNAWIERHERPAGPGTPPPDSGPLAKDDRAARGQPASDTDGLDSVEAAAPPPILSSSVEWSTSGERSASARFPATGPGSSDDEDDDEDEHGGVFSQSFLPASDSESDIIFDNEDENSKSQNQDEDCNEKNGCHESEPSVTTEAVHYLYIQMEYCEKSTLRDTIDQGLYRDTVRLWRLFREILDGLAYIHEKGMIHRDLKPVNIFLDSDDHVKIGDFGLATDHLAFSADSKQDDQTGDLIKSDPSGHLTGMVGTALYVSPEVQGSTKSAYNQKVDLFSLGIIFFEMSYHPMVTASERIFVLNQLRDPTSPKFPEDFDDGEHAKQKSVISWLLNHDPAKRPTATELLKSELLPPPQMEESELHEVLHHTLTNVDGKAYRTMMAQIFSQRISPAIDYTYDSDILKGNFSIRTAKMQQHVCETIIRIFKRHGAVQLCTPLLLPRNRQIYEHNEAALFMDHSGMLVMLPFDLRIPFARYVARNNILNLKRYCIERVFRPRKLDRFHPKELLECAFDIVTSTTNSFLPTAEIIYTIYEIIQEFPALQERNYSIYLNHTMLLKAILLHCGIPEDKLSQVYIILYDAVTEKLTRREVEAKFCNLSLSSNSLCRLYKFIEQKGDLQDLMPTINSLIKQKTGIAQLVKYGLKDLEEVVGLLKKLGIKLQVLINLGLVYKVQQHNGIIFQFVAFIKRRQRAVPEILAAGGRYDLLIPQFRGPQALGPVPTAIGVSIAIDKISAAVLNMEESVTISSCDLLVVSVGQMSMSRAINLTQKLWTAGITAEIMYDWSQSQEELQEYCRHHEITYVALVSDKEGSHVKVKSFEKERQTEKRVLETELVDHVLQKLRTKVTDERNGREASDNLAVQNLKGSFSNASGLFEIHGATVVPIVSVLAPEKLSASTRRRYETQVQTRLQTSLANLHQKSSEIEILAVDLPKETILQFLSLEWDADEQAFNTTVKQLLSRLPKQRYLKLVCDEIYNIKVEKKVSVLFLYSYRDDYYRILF
Chain of intracellular GCN2 (phosphorylation of the GCN2 substrate eIF2α) (Q9P2K8 whole entry): as above

| Ki (GCN2 kinase) [nM] | IC50 [1] [nM] | SMILES |
| --- | --- | --- |
| 10 to 1000 | > 5000 | O=C1CN(c2cc(-c3cnc4ccc(C(F)F)nn34)ccn2)CCN1 [II-62, 4-(4-(6-(Difluoromethyl)imidazo[1,2-b]pyridazin-3-yl)pyridin-2-yl)piperazin-2-one] |
| < 10 | > 5000 | CS(=O)(=O)NCC1CCCN(c2cc(-c3cnc4ccc(C(F)F)nn34)cc(C(F)(F)F)n2)C1 (centres unmarked) [II-63, N-((1-(4-(6-(Difluoromethyl)imidazo[1,2-b]pyridazin-3-yl)-6-(trifluoromethyl)pyridin-2-yl)piperidin-3-yl)methyl)methanesulfonamide] |
| < 10 | < 500 | CNc1cc(-c2cnc3ccc(C(F)F)nn23)cc(N2CC(C)C(F)(F)C(CNS(C)(=O)=O)C2)n1 (centres unmarked) [II-64, N-((1-(4-(6-(Difluoromethyl)imidazo[1,2-b]pyridazin-3-yl)-6-(methylamino)pyridin-2-yl)-4,4-difluoro-5-methylpiperidin-3-yl)methyl)methanesulfonamide] |
| < 10 | 500 to 5000 | CNc1cc(-c2cnc3ccc(C(F)F)nn23)cc(N2CC(C)C(F)(F)C(CNS(C)(=O)=O)C2)n1 (centres unmarked) [II-65, N-((1-(4-(6-(Difluoromethyl)imidazo[1,2-b]pyridazin-3-yl)-6-(methylamino)pyridin-2-yl)-4,4-difluoro-5-methylpiperidin-3-yl)methyl)methanesulfonamide] |
| < 10 | 500 to 5000 | CS(=O)(=O)NCC1CCCN(c2cc(-c3cnc4ccc(C(F)F)nn34)cc(N3CCOCC3)n2)C1 (centres unmarked) [II-66, N-((1-(4-(6-(Difluoromethyl)imidazo[1,2-b]pyridazin-3-yl)-6-morpholinopyridin-2-yl)piperidin-3-yl)methyl)methanesulfonamide] |
| < 10 | < 500 | CS(=O)(=O)NCC1CCCN(c2cc(-c3cnc4ccc(C(F)F)nn34)cc(N3CC4(CCN4)C3)n2)C1 (centres unmarked) [II-67, N-((1-(4-(6-(Difluoromethyl)imidazo[1,2-b]pyridazin-3-yl)-6-(1,6-diazaspiro[3.3]heptan-6-yl)pyridin-2-yl)piperidin-3-yl)methyl)methanesulfonamide] |
| < 10 | 500 to 5000 | CNc1cc(-c2cnc3ccc(C(F)F)nn23)cc(N2CCC[C@H](CNS(C)(=O)=O)C2)n1 [II-68, (S)—N-((1-(4-(6-(Difluoromethyl)imidazo[1,2-b]pyridazin-3-yl)-6-(methylamino)pyridin-2-yl)piperidin-3-yl)methyl)methanesulfonamide] |
| < 10 | < 500 | CNc1cc(-c2cnc3ccc(C(F)F)nn23)cc(N2CCO[C@H](CNS(C)(=O)=O)C2)n1 [II-69, (S)—N-((4-(4-(6-(Difluoromethyl)imidazo[1,2-b]pyridazin-3-yl)-6-(methylamino)pyridin-2-yl)morpholin-2-yl)methyl)methanesulfonamide] |
| 10 to 1000 | > 5000 | CS(=O)(=O)N1CCC12CCCN(c1cc(-c3cnc4ccc(C(F)F)nn34)ncn1)C2 (centres unmarked) [II-70, 6-(Difluoromethyl)-3-(6-(1-(methylsulfonyl)-1,6-diazaspiro[3.5]nonan-6-yl)pyrimidin-4-yl)imidazo[1,2-b]pyridazine] |
| < 10 | 500 to 5000 | CNc1cc(-c2cnc3ccc(C(F)F)nn23)cc(N2CCC(F)(F)C(CNS(C)(=O)=O)C2)n1 (centres unmarked) [II-71, N-((1-(4-(6-(Difluoromethyl)imidazo[1,2-b]pyridazin-3-yl)-6-(methylamino)pyridin-2-yl)-4,4-difluoropiperidin-3-yl)methyl)methanesulfonamide] |
| < 10 | < 500 | CN1CC2(C1)CN(c1cc(-c3cnc4ccc(C(F)F)nn34)cc(N3CCCC(CNS(C)(=O)=O)C3)n1)C2 (centres unmarked) [II-72, N-((1-(4-(6-(Difluoromethyl)imidazo[1,2-b]pyridazin-3-yl)-6-(6-methyl-2,6-diazaspiro[3.3]heptan-2-yl)pyridin-2-yl)piperidin-3-yl)methyl)methanesulfonamide] |
| 10 to 1000 | > 5000 | CS(=O)(=O)NCC1CCCN(c2cc(-c3cnc4ccc(C(F)F)nn34)cnc2CN)C1 (centres unmarked) [II-73, N-((1-(2-(Aminomethyl)-5-(6-(difluoromethyl)imidazo[1,2-b]pyridazin-3-yl)pyridin-3-yl)piperidin-3-yl)methyl)methanesulfonamide] |
| < 10 | 500 to 5000 | CNCCOc1cc(-c2cnc3ccc(C(F)F)nn23)cc(N2CCCC(CNS(C)(=O)=O)C2)n1 (centres unmarked) [II-74, N-((1-(4-(6-(Difluoromethyl)imidazo[1,2-b]pyridazin-3-yl)-6-(2-(methylamino)ethoxy)pyridin-2-yl)piperidin-3-yl)methyl)methanesulfonamide] |
| < 10 | < 500 | CC1CN(c2ccnc(-c3cnc4ccc(C(F)F)nn34)c2)CC(CNS(C)(=O)=O)C1(F)F (centres unmarked) [II-75, N-((1-(2-(6-(Difluoromethyl)imidazo[1,2-b]pyridazin-3-yl)pyridin-4-yl)-4,4-difluoro-5-methylpiperidin-3-yl)methyl)methanesulfonamide] |
| 10 to 1000 | > 5000 | FC(F)c1ccc2ncc(-c3ccnc(N4CCOCC4)c3)n2n1 [II-76, 4-(4-(6-(Difluoromethyl)imidazo[1,2-b]pyridazin-3-yl)pyridin-2-yl)morpholine] |
| 10 to 1000 | > 5000 | O=S1(=O)CCN(c2cc(-c3cnc4ccc(C(F)F)nn34)ccn2)CC1 [II-77, 4-(4-(6-(Difluoromethyl)imidazo[1,2-b]pyridazin-3-yl)pyridin-2-yl)thiomorpholine 1,1-dioxide] |
| < 10 | < 500 | CC1CN(c2cc(-c3cnc4ccc(C(F)F)nn34)ccn2)CC(CNS(C)(=O)=O)C1(F)F (centres unmarked) [II-78, N-((1-(4-(6-(Difluoromethyl)imidazo[1,2-b]pyridazin-3-yl)pyridin-2-yl)-4,4-difluoro-5-methylpiperidin-3-yl)methyl)methanesulfonamide] |
| 10 to 1000 | > 5000 | FC(F)c1ccc2ncc(-c3ccnc(N4CC5(CNC5)C4)c3)n2n1 [II-79, 3-(2-(2,6-Diazaspiro[3.3]heptan-2-yl)pyridin-4-yl)-6-(difluoromethyl)imidazo[1,2-b]pyridazine] |
| < 10 | 500 to 5000 | CS(=O)(=O)NCC1CCCN(c2cc(-c3cnc4ccc(C(F)F)nn34)cc(CN)n2)C1 (centres unmarked) [II-80, N-((1-(6-(Aminomethyl)-4-(6-(difluoromethyl)imidazo[1,2-b]pyridazin-3-yl)pyridin-2-yl)piperidin-3-yl)methyl)methanesulfonamide] |
| 10 to 1000 | > 5000 | CS(=O)(=O)NCC1CN(c2cc(-c3cnc4ccc(C(F)F)nn34)ccn2)CCN1C1COC1 (centres unmarked) [II-81, N-((4-(4-(6-(Difluoromethyl)imidazo[1,2-b]pyridazin-3-yl)pyridin-2-yl)-1-(oxetan-3-yl)piperazin-2-yl)methyl)methanesulfonamide] |
| 10 to 1000 | 500 to 5000 | CS(=O)(=O)NCC1CCCN(c2cc(-c3cnc4ccc(C(F)F)nn34)ccc2C#N)C1 (centres unmarked) [II-82, N-((1-(2-Cyano-5-(6-(difluoromethyl)imidazo[1,2-b]pyridazin-3-yl)phenyl)piperidin-3-yl)methyl)methanesulfonamide] |
| < 10 | 500 to 5000 | CS(=O)(=O)NCC1CCCN(c2cc(-c3cnc4ccc(C(F)F)nn34)cc(N3CC4(COC4)C3)n2)C1 (centres unmarked) [II-83, N-((1-(4-(6-(Difluoromethyl)imidazo[1,2-b]pyridazin-3-yl)-6-(2-oxa-6-azaspiro[3.3]heptan-6-yl)pyridin-2-yl)piperidin-3-yl)methyl)methanesulfonamide] |
| < 10 | 500 to 5000 | CS(=O)(=O)NCC1CCCN(c2cc(-c3cnc4ccc(C(F)F)nn34)cc(OC3CNC3)n2)C1 (centres unmarked) [II-84, N-((1-(6-(Azetidin-3-yloxy)-4-(6-(difluoromethyl)imidazo[1,2-b]pyridazin-3-yl)pyridin-2-yl)piperidin-3-yl)methyl)methanesulfonamide] |
| < 10 | 500 to 5000 | CS(=O)(=O)NCC1CCCN(c2cc(-c3cnc4ccc(C(F)F)nn34)cc(N3CC(O)C3)n2)C1 (centres unmarked) [II-85, N-((1-(4-(6-(Difluoromethyl)imidazo[1,2-b]pyridazin-3-yl)-6-(3-hydroxyazetidin-1-yl)pyridin-2-yl)piperidin-3-yl)methyl)methanesulfonamide] |
| < 10 | 500 to 5000 | CS(=O)(=O)NCC1CCCN(c2cc(-c3cnc4ccc(C(F)F)nn34)cc(N3CC4(CCO4)C3)n2)C1 (centres unmarked) [II-86, N-((1-(4-(6-(Difluoromethyl)imidazo[1,2-b]pyridazin-3-yl)-6-(1-oxa-6-azaspiro[3.3]heptan-6-yl)pyridin-2-yl)piperidin-3-yl)methyl)methanesulfonamide] |
| < 10 | 500 to 5000 | CS(=O)(=O)NCC1CCCN(c2cncc(-c3cnc4ccc(C(F)F)nn34)c2)C1 (centres unmarked) [II-87, N-((1-(5-(6-(Difluoromethyl)imidazo[1,2-b]pyridazin-3-yl)pyridin-3-yl)piperidin-3-yl)methyl)methanesulfonamide] |
| 10 to 1000 | 500 to 5000 | O=C1OCC2CN(c3cc(-c4cnc5ccc(C(F)F)nn45)ccn3)CCN12 (centres unmarked) [II-88, 7-(4-(6-(Difluoromethyl)imidazo[1,2-b]pyridazin-3-yl)pyridin-2-yl)tetrahydro-1H-oxazolo[3,4-a]pyrazin-3(5H)-one] |
| < 10 | 500 to 5000 | COCCNc1cc(-c2cnc3ccc(C(F)F)nn23)cc(N2CCCC(CNS(C)(=O)=O)C2)n1 (centres unmarked) [II-89, N-((1-(4-(6-(Difluoromethyl)imidazo[1,2-b]pyridazin-3-yl)-6-((2-methoxyethyl)amino)pyridin-2-yl)piperidin-3-yl)methyl)methanesulfonamide] |
